# “Also recorded” adds a separate entry of the source.
# Test system: CK-p25 mice
# Assay: p25 (CK-p25) mouse model of Alzheimer's disease
# Type: in vivo
# Details: 30 mg/kg i.p. daily
# Procedure: Cdk^5tetO/+; Camk^2atTa/+ model of Alzheimer's disease uses the Camk2a promoter-driven tetracycline-controlled transactivator system (tTA) to overexpress human p25 fused to GFP in forebrain projection neurons after the removal of doxycycline from the diet. To avoid potential developmental effects of p25 expression, all mice were conceived and raised in the presence of doxycycline until 6-8 weeks of age.
# Immunostaining. Mice were anesthetized with ketamine (120 mg/kg) and xylazine (24 mg/kg) and perfused transcardially with 10 ml PBS and 40 ml 4% paraformaldehyde (Electron Microscopy Sciences). Fixed brains were removed and dehydrated in 5%, 15% and 30% sucrose in PBS. Following dehydration, brains were frozen in Neg-50 (Thermo Scientific) on dry ice and stored at −80° C. until further processing. Brains were cut using a cryostat and 25-μm sections were mounted on Superfrost Plus microscope slides (Fisher Scientific). Slides were stored at −80° C. until staining. Slides were washed with PBS, permeabilized with PBS+0.2% Triton X-100 (PBST) and blocked with 2% normal goat serum in PBST for one hour at room temperature. Slides were incubated with primary antibodies (IBA1, 1:500, 019-19741, Waco; NeuN) in 2% normal goat serum in PBST overnight at 4° C. Slides were washed in PBST and incubated in Alexa Fluor-conjugated secondary antibodies (Alexa Fluor 488-, 546-, and 568- and 647-labeled goat anti-mouse, goat anti-rat, goat anti-chicken, goat anti-rabbit or donkey anti-goat IgGs (H+L); 1:500, Thermo Scientific) in 2% normal goat serum in PBST for 1 h at RT. Slides were washed and cover-slipped using Prolong Gold anti-fade with DAPI (Invitrogen) and dried overnight. Imaging was performed using a Zeiss LSM 780 Confocal Microscope (Zeiss, Oberkochen, DE). For z-stack images, 20-μm z-stack confocal images were acquired at 2-μm intervals, with 40×/1.3 oil objective at 0.6 or 1× zoom. For single plane images, 4.6 μm images were acquired at 20×/0.8 or 40×/1.3 objectives 0.6 or 1× zoom. Image processing was performed using Zen 2011 software (Zeiss).
# Immunoblotting. Mice were anesthetized with CO2 followed by decapitation, and the region of interest was rapidly dissected and frozen in liquid nitrogen and stored at −80° C. until further processing. Samples were sonicated at 4° C. in 1% SDS solution supplemented with protease, Trichostatin A (500 ng/ml) and PhosStop phosphatase inhibitor (Roche, Switzerland), and boiled for ten minutes. The protein concentration was determined using a BCA protein assay kit (ThermoFisherScientific, USA) according to the manufacturer's instructions. Protein samples were diluted in equal volume of 2×LDS sample buffer (Invitrogen) and supplemented with DTT to a final concentration of 200 mM (Sigma).
# Therefore to test the therapeutic effect of IBET858, p25 was overexpressed for two weeks in adult mice to initiate microgliosis and gene expression deficits before administration of daily IBET858 (30 mg/kg, i.p.) treatment for five weeks (FIG. 6A).
# Gene expression levels for Casp3 are unaffected by 5 week IBET858 treatment in vivo. n=3, unpaired two-tailed t-test. […] To generate the p25 neurodegenerative mouse model, tetOCDK5R1/GFP were bred to CamK2a-tTA mice (“CK-p25”). Transgene overexpression was induced at 6 weeks of age by removing doxycycline from the diet. After two weeks, mice were daily injected with IBET858 (30 mg/kg, i.p.) or vehicle (FIG. 24C). Gene expression and protein levels of GFP reflecting transgene expression are unchanged.
compound,measurement,setting,value
CC(=O)N1c2ccc(-c3ccc(CN4CCCCC4)cc3)cc2[C@H](Nc2ccccc2)CC1C (stereo in doubt) [IBET858],hippocampal inflammatory genes induced by P25 overexpression,five weeks,suppressed
same,contextual and cued recall (freezing behavior),"five weeks, fear conditioning",indistinguishable from controls
same,hippocampal Psd95 protein level compared to wild type controls,"five weeks, untreated P25 42+/−10.7%",106+/−11.9%
same,hippocampal NeuN protein level compared to wild type controls,"five weeks, untreated P25 49+/−9.3%",105+/−9.8%
same,brain atrophy (loss),"five weeks, untreated p25 27%",17%
same,number of microglia in the hippocampus,"five weeks, untreated p25 713.9+/−106",332.9+/−12.6 Iba1+ cells per mm^2
same,neuronal density in the dentate gyrus,"five weeks, untreated p25 2254+/−223.8",7880+/−587 NeuN+ cells per mm2
same,expression of the p25 transgene,western blot / GFP,does not affect; also recorded: unchanged
same,genes induced by P25 overexpression that are significantly suppressed,hippocampus,365 genes
same,genes suppressed by P25 overexpression that are significantly induced,hippocampus,373 genes

# — patent US12691124B2, “Methods of controlling and improving brain health” (ICAHN SCHOOL OF MEDICINE AT MOUNT SINAI, priority 2019, dated 2026)
